In patent US10167299B2, “1-(3-aminopropyl) substituted cyclic amine compounds, preparation method therefor, and pharmaceutical compositions and uses thereof” (SHANGHAI INSTITUTE OF MATERIA MEDICA, CHINESE ACADEMY OF …, priority 2013, dated 2019):
In brackets after ≈: the same amount, converted by molar mass. Where two headings read alike, the source gives them in different places.

Legend:
HIV-1SF162 virus strain [1] = test: Inhibition of viral replication in PBMC infected with HIV-1SF162; assay type: cell-based
Experimental: (§1) The virus was titrated according to the modified method of Johnson & Byington. Briefly, the HIV-1 stock solution was subject to four-fold dilution in a 96-well plate (ten gradients) sextuplicate for each gradient, while setting six control-wells. Into each well was added 100 μl (5×10^6/ml) PHA-stimulated PBMC cells and final volume per well was 200 μl. The cells were cultured at 37° C. with 5% CO2. […] On the seventh day, the infected supernatant was collected and lysed with 0.5% Triton X100. The p24 antigen was detected by ELISA and TCID50 of virus was calculated according to Reed & Muench method (50% Tissue culture infection dose).
(§2) The starting concentration was 1 μM, six dilutions were obtained, and each well contained 200 μl mixture. While wells not containing drugs were set as control. […] After homogeneously mixed, the mixture was immediately added to 48-well plate containing diluted drug and each well was added with 200 μl of mixture. MVC was used as positive control. The cells were cultured at 37° C. with 5% CO2 for seven days (drug with the same concentration was added on the third day). The supernatant was collected, lysed and inactivated with 0.5% Triton X-100. The inhibition effect of drug on HIV-1 replication was detected using p24 antigen capture ELISA method.

HIV-1Ba-L virus strain [2] = test: Inhibition of viral replication in HOS-CD4-CCR5 cells infected with HIV-1Ba-L; assay type: cell-based
Experimental: (§3) On the day before the test, 1×10^5/ml of HOS-CD4-CCR5 cells were inoculated in 96-well plates with 100 μl for each well. The compound to be tested was subject to 5-fold dilution in 96-well microtiter plate with DMEM complete medium (containing 10% FBS). The starting concentration was 1 μM and six dilutions were obtained. Triplicate wells were set for each dilution and each well contained 100 μl mixture. While wells not containing drugs were set as control. The supernatant was removed and 100 μl of drug was added and incubated for 2 h. Then 100 μl of HIV-1SF162 and HIV-1Ba-L were added to dilute supernatant. The cells were infected for 1 h, free virus was washed out and drug with the same final concentration was added. MVC was used as positive control. The cells were cultured at 37° C. with 5% CO2 for three days. The supernatant was collected, lysed and inactivated with 0.5% Triton X-100. The inhibition effect of drug on HIV-1 replication was detected using p24 antigen capture ELISA method.

[3] = Toxicity test of compounds on PBMC cells (MTT); assay type: cell-based; conditions: human, PBMC cells (Table 4)
Experimental: (§4) The compound to be tested was subject to 5-fold dilution in a 96-well microtiter plate with RPMI-1640 or DMEM complete medium (containing 10% FBS) (Six dilution) triplicate for each dilution and 100 μl for each well. While wells not containing drugs were set as control. Into each well was added 100 μl of 4×10^5/ml PM1, HOS-CD4-CCR5 cells or 100 μl of 5×10^6/ml PHA stimulated PBMC. The cells were cultured at 37° C. with 5% CO2 for three days (PBMC cells were cultured for seven days and 100 μl of fresh RPMI-1640 complete medium was supplemented on the third day). Cytotoxicity was tested with MTT assay. OD values were measured by ELx800 microplate reader. The detection wavelength was 570 nm, and the reference wavelength was 630 nm.

HIV-1KM018 virus strain = test: Inhibition of viral replication in PBMC infected with HIV-1KM018; assay type: cell-based
Experimental: as §1, §2

HIV-1SF162 virus strain [4] = test: Inhibition activity on TZM-bl cells infected with HIV-1SF162; conditions: for EC50: Human immunodeficiency virus 1, TZM-bl; for therapeutic index (TI): TZM-bl cells infected with HIV-1SF162; for cytotoxicity in vitro and therapeutic index in words, versus positive control compound: TZM-bl cells infected with HIV-1SF162, conclusion from Table 3
[5] = Cytotoxicity (CC50) in TZM-bl cells; assay type: cell-based; conditions: human; TZM-bl cells (Table 3); read-out: CC50
HIV-1Ba-L virus strain [6] = test: Inhibition of viral replication in PBMC infected with HIV-1Ba-L; assay type: cell-based
Experimental: The virus was titrated according to the modified method of Johnson & Byington. Briefly, the HIV-1 stock solution was subject to four-fold dilution in a 96-well plate (ten gradients) sextuplicate for each gradient, while setting six control-wells. Into each well was added 100 μl (5×10^6/ml) PHA-stimulated PBMC cells and final volume per well was 200 μl. The cells were cultured at 37° C. with 5% CO2. On the third day, 100 μl of fresh RPMI-1640 complete medium was supplemented. On the seventh day, the infected supernatant was collected and lysed with 0.5% Triton X100. The p24 antigen was detected by ELISA and TCID50 of virus was calculated according to Reed & Muench method (50% Tissue culture infection dose).
The compound to be tested was subject to 5-fold dilution in 48-well plate with RPMI-1640 complete medium (containing 10% FBS). The starting concentration was 1 μM, six dilutions were obtained, and each well contained 200 μl mixture. While wells not containing drugs were set as control. Virus (MOI=0.01) was added to 5×10^6/ml of PBMC cells which have been stimulated by PHA for 72 h. After homogeneously mixed, the mixture was immediately added to 48-well plate containing diluted drug and each well was added with 200 μl of mixture. MVC was used as positive control. The cells were cultured at 37° C. with 5% CO2 for seven days (drug with the same concentration was added on the third day). The supernatant was collected, lysed and inactivated with 0.5% Triton X-100. The inhibition effect of drug on HIV-1 replication was detected using p24 antigen capture ELISA method.

in vivo = conditions: male, rat
[7] = Toxicity test of compounds on HOS-CD4-CCR5 cells (MTT); assay type: cell-based; conditions: human; HOS-CD4+-CCR5 cells (Table 7)
Experimental: as §4

HIV-1SF162 virus strain [8] = test: Inhibition of viral replication in HOS-CD4-CCR5 cells infected with HIV-1SF162; assay type: cell-based
Experimental: as §3

[9] = Human immunodeficiency virus 1, PBMC cells infected with HIV-1SF162, read-out: EC50
[10] = Human immunodeficiency virus 1, HOS-CD4+-CCR5 cells infected with HIV-1Ba-L, read-out: EC50
[11] = Human immunodeficiency virus 1, PBMC cells infected with HIV-1KM018, read-out: EC50
[12] = Human immunodeficiency virus 1, PBMC cells infected with HIV-1Ba-L, read-out: EC50
[13] = Human immunodeficiency virus 1, HOS-CD4+-CCR5 cells infected with HIV-1SF162, read-out: EC50
[14] = Human immunodeficiency virus 1, PBMC
[15] = PBMC cells infected with HIV-1SF162
[16] = Human immunodeficiency virus 1, HOS-CD4-CCR5
[17] = PBMC cells infected with HIV-1KM018
[18] = PBMC cells infected with HIV-1Ba-L
[19] = HOS-CD4+-CCR5 cells infected with HIV-1SF162

Compound	EC50 (HIV-1SF162 virus strain [4]) [µg/mL]	therapeutic index (TI) (HIV-1SF162 virus strain [4])	cytotoxicity in vitro and therapeutic index in words, versus positive control compound (HIV-1SF162 virus strain [4])	CC50 [5] [µg/mL]	bioavailability (in vivo) [%]	AUC(0-t) (in vivo; 10 mg/kg) [ng·h/mL]	AUC(0-inf) (in vivo; iv, 10 mg/kg) [ng·h/mL]	AUC(0-t) (in vivo; iv, 10 mg/kg) [ng·h/mL]	Cmax (in vivo; iv, 10 mg/kg) [ng/mL]	MRT (in vivo; iv, 10 mg/kg) [h]	Tmax (in vivo; iv, 10 mg/kg) [h]	half-life (in vivo; iv, 10 mg/kg) [h]	AUC(0-inf) (in vivo; po, 20 mg/kg) [ng·h/mL]	AUC(0-t) (in vivo; po, 20 mg/kg) [ng·h/mL]	Cmax (in vivo; po, 20 mg/kg) [ng/mL]	MRT (in vivo; po, 20 mg/kg) [h]	Tmax (in vivo; po, 20 mg/kg) [h]	bioavailability (in vivo; po, 20 mg/kg) [%]	half-life (in vivo; po, 20 mg/kg) [h]	CC50 at 3 days [7] [µg/mL]	further results
Cc1nnc(C(C)C)n1C1CC2CCC(C1)N2CC[C@H](NC(=O)C1CCC(F)(F)CC1)c1cccs1 (stereo partly drawn) [Compound 14, 4,4-difluoro-N-[(1S)-3-[exo-3-(3-isopropyl-5-methyl-4H-1,2,4-triazol-4-yl)-8-azabicyclo[3.2.1]octane-8-yl]-1-(thiophen-2-yl)propyl]cyclohexane-1-carboxamide]	0.00359 (≈ 0.00691 µM)	>55710.31	better than positive control compound	> 200	7.85	7050	7060	7050	6840	0.71	0.25	0.77	1190	1110	266	3.33	4	7.85	2.12	370 (≈ 711 µM)	EC50 (HIV-1SF162 virus strain [1]; [9]): 0.00158 µg/mL (≈ 0.00304 µM); EC50 (HIV-1Ba-L virus strain [2]; [10]): 0.00074 µg/mL (≈ 0.00142 µM); CC50 at 7 days ([3]; PHA stimulated PBMC): 268 µg/mL (≈ 515 µM); EC50 (HIV-1KM018 virus strain; [11]): 0.00377 µg/mL (≈ 0.00725 µM); EC50 (HIV-1Ba-L virus strain [6]; [12]): 0.0197 µg/mL (≈ 0.0379 µM); EC50 (HIV-1SF162 virus strain [8]; [13]): 0.0131 µg/mL (≈ 0.0251 µM)
Cc1nnc(C(C)C)n1C1CC2CCC(C1)N2CC[C@H](NC(=O)C1CCCCC1)c1cccs1 (stereo partly drawn) [Compound 16]	0.0118 (≈ 0.0244 µM)	>16963.53	comparable with the positive control compound	> 200	14.8	5110	5110	5110	4320	0.79	0.25	0.31	1510	1510	631	2.11	0.25	14.8	1.16	343 (≈ 709 µM)	EC50 (HIV-1SF162 virus strain [1]; [14]): 0.455 µg/mL (≈ 0.941 µM); therapeutic index (TI) (HIV-1SF162 virus strain [1]; [15]): 586.3; EC50 (HIV-1Ba-L virus strain [2]; [16]): 0.0105 µg/mL (≈ 0.0216 µM); CC50 at 7 days [3]: 267 µg/mL (≈ 552 µM); EC50 (HIV-1KM018 virus strain; [14]): 0.555 µg/mL (≈ 1.15 µM); therapeutic index (TI) (HIV-1KM018 virus strain; [17]): 481.1; EC50 (HIV-1Ba-L virus strain [6]; [14]): 0.365 µg/mL (≈ 0.754 µM); therapeutic index (TI) (HIV-1Ba-L virus strain [6]; [18]): 1301.1; therapeutic index (TI) (HIV-1SF162 virus strain [8]; [19]): 8042; EC50 (HIV-1SF162 virus strain [8]; [16]): 0.0427 µg/mL (≈ 0.0882 µM)
Cc1nnc(C(C)C)n1C1CCN(CC[C@H](NC(=O)C2CCCC2)c2cccs2)CC1 [Compound 17, N-[(1S)-3-[4-(3-isopropyl-5-methyl-4H-1,2,4-triazol-4-yl)-piperidin-1-yl]-1-(thiophen-2-yl)propyl]cyclopentane-1-carboxamide]	0.0129 (≈ 0.0292 µM)	>15444.02	comparable with the positive control compound	> 200								2.22							1.78	439 (≈ 990 µM)	EC50 (HIV-1SF162 virus strain [1]; [9]): 0.0413 µg/mL (≈ 0.0931 µM); therapeutic index (TI) (HIV-1SF162 virus strain [1]; [15]): 10621; EC50 (HIV-1Ba-L virus strain [2]; [10]): 0.0155 µg/mL (≈ 0.035 µM); CC50 at 7 days ([3]; PHA stimulated PBMC): 439 µg/mL (≈ 989 µM); EC50 (HIV-1KM018 virus strain; [11]): > 1 µg/mL; therapeutic index (TI) (HIV-1KM018 virus strain; [17]): <438.6; EC50 (HIV-1Ba-L virus strain [6]; [12]): 0.848 µg/mL (≈ 1.91 µM); therapeutic index (TI) (HIV-1Ba-L virus strain [6]; [18]): 438.6; therapeutic index (TI) (HIV-1SF162 virus strain [8]; [19]): 8632; EC50 (HIV-1SF162 virus strain [8]; [13]): 0.0509 µg/mL (≈ 0.115 µM)
Cc1nnc(C(C)C)n1C1CC2CCC(C1)N2CC[C@H](NC(=O)C1CCCC1)c1cccs1 (stereo partly drawn) [Compound 18, N-[(1S)-3-[exo-3-(3-isopropyl-5-methyl-4H-1,2,4-triazol-4-yl)-8-azabicyclo[3.2.1]octane-8-yl]-1-(thiophen-2-yl)propyl]cyclopentane-1-carboxamide]	0.00123 (≈ 0.00262 µM)	>162601.63	better than positive control compound	> 200	90.5	1550	1600	1550	771	1.98	0.25	1.81	3070	2800	690	2.94	2	90.5	2.05	507 (≈ 1080 µM)	EC50 (HIV-1SF162 virus strain [1]; [14]): 0.0927 µg/mL (≈ 0.197 µM); therapeutic index (TI) (HIV-1SF162 virus strain [1]; [15]): 3721; EC50 (HIV-1Ba-L virus strain [2]; [16]): 0.0034 µg/mL (≈ 0.00724 µM); CC50 at 7 days [3]: 345 µg/mL (≈ 735 µM); EC50 (HIV-1KM018 virus strain; [14]): 0.0699 µg/mL (≈ 0.149 µM); therapeutic index (TI) (HIV-1KM018 virus strain; [17]): 4935.2; EC50 (HIV-1Ba-L virus strain [6]; [14]): 0.289 µg/mL (≈ 0.616 µM); therapeutic index (TI) (HIV-1Ba-L virus strain [6]; [18]): 2266.5; EC50 (HIV-1SF162 virus strain [8]; [16]): 0.0203 µg/mL (≈ 0.0432 µM)
